pKi: −log10 of the molar value.
How the values were obtained:
[1] = biological target: Carbonic anhydrase 1 (Homo sapiens, UniProt P00915)
[2] = biological target: Carbonic anhydrase 4 (Homo sapiens, UniProt P22748)
[3] = test system: Oryctolagus cuniculus; assay: Compound was evaluated in vivo in normotensive rabbits (23.5+/-2.6 mmHg) for the intraocular pressure (IOP) lowering 90 min after topical administration with one drop of Carbonic anhydrase inhibitor at a pH 7; type: functional, Eye
[4] = test system: Oryctolagus cuniculus; assay: In vivo activity in normotensive rabbits (23.5+/-2.6 mmHg) for the intraocular pressure (IOP) lowering 30 min after topical administration with one drop of Carbonic anhydrase inhibitor at a pH 7.0; type: functional, Eye
[5] = test system: Oryctolagus cuniculus; assay: In vivo activity in normotensive rabbits (23.5+/-2.6 mmHg) for the intraocular pressure (IOP) lowering 60 min after topical administration with one drop of Carbonic anhydrase inhibitor at a pH 7.0; type: functional, Eye
[6] = octanol/water
[7] = not given; remark: listed apart in the source
[8] = test system: Oryctolagus cuniculus; assay: Compound was evaluated in vivo in normotensive rabbits (23.5+/-2.6 mmHg) for the intraocular pressure (IOP) lowering 30 min after topical administration with one drop of Carbonic anhydrase inhibitor at a pH 7.0; type: functional, Eye
[9] = test system: Oryctolagus cuniculus; assay: Compound was evaluated in vivo in normotensive rabbits (23.5+/-2.6 mmHg) for the intraocular pressure (IOP) lowering 90 min after topical administration with one drop of Carbonic hydrase inhibitor at a pH 7.5; type: functional, Eye
[10] = test system: Oryctolagus cuniculus; assay: In vivo activity in normotensive rabbits (23.5+/-2.6 mmHg) for the intraocular pressure (IOP) lowering 30 min after topical administration with one drop of Carbonic anhydrase inhibitor at a pH 7; type: functional, Eye
[11] = test system: Oryctolagus cuniculus; assay: In vivo activity in normotensive rabbits (23.5+/-2.6 mmHg) for the intraocular pressure (IOP) lowering 60 min after topical administration with one drop of Carbonic anhydrase inhibitor at a pH 7; type: functional, Eye
[12] = test system: Oryctolagus cuniculus; assay: In vivo activity in normotensive rabbits (23.5+/-2.6 mmHg) for the intraocular pressure (IOP) lowering 90 min after topical administration with one drop of Carbonic anhydrase inhibitor at a pH 7; type: functional, Eye
[13] = test system: Oryctolagus cuniculus; assay: In vivo activity in glaucomatous rabbits (33.5+/-3.0 mmHg) for the intraocular pressure (IOP) lowering 30 min after topical administration with one drop of Carbonic anhydrase at a pH 7.0; type: functional, Eye
[14] = test system: Oryctolagus cuniculus; assay: In vivo activity in glaucomatous rabbits (33.5+/-3.0 mmHg) for the intraocular pressure (IOP) lowering 90 min after topical administration with one drop of Carbonic anhydrase at a pH 7.0; type: functional, Eye

Sequence of Carbonic anhydrase 1 (P00915 whole entry): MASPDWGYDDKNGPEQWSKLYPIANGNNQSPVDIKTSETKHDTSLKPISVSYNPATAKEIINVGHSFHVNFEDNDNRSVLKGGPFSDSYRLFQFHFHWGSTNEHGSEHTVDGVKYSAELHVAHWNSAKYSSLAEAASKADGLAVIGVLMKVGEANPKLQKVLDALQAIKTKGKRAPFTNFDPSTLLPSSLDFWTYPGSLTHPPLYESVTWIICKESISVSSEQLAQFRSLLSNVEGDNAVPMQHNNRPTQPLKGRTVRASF
Sequence of Carbonic anhydrase 4 (P22748 whole entry): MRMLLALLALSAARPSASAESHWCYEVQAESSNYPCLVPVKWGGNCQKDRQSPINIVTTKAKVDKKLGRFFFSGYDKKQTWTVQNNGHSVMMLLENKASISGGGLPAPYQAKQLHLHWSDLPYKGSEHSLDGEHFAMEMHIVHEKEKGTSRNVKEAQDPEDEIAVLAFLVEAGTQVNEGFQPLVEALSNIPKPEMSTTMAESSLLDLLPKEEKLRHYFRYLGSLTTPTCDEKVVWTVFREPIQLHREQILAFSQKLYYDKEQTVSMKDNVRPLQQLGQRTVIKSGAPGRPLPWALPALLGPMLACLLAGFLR

SMILES	pKi [1]	pKi [2]	further results
Nc1ccccc1S(N)(=O)=O	–	5.88	–
NS(=O)(=O)c1ccc(COC(=O)CN(CCN(CCN(CC(=O)O)CC(=O)O)CC(=O)O)CC(=O)O)cc1	6.29	6.58	–
NS(=O)(=O)c1ccc(CCO)cc1	–	6.35	–
NS(=O)(=O)c1nnc(NC(=O)CN(CCN(CCN(CC(=O)O)CC(=O)Nc2nnc(S(N)(=O)=O)s2)CC(=O)O)CC(=O)O)s1	–	8.15	Kin: 6.2 h⁻¹; logD [6]: 1.961; Kin [7]: 3.9 h⁻¹
NS(=O)(=O)c1ccc(NC(=O)CN(CCN(CCN(CC(=O)O)CC(=O)Nc2ccc(S(N)(=O)=O)cc2I)CC(=O)O)CC(=O)O)c(I)c1	7.15	7.62	–
NS(=O)(=O)c1ccc(NC(=O)CN(CCN(CCN(CC(=O)O)CC(=O)Nc2ccc(S(N)(=O)=O)cc2F)CC(=O)O)CC(=O)O)c(F)c1	6.87	7.74	–
NS(=O)(=O)c1nnc(NC(=O)CN(CCN(CCN(CC(=O)O)CC(=O)Nc2nnc(S(N)(=O)=O)s2)CC(=O)[O-])CC(=O)[O-])s1.[Zn+2]	–	8.40	Change in IOP [8]: 7.4 mmHg; Change in IOP [9]: 9.5 mmHg
NS(=O)(=O)c1ccc(COC(=O)CN(CCN(CCN(CC(=O)O)CC(=O)OCc2ccc(S(N)(=O)=O)cc2)CC(=O)O)CC(=O)O)cc1	6.49	6.77	–
NS(=O)(=O)c1ccc(NC(=O)CN(CCN(CCN(CC(=O)O)CC(=O)Nc2ccc(S(N)(=O)=O)cc2Cl)CC(=O)O)CC(=O)O)c(Cl)c1	6.81	7.57	–
NS(=O)(=O)c1cc(S(N)(=O)=O)c(NC(=O)CN(CCN(CCN(CC(=O)O)CC(=O)O)CC(=O)O)CC(=O)O)cc1Cl	7.06	7.28	–
NS(=O)(=O)c1nnc(NC(=O)CCNC(=O)CN(CCN(CCN(CC(=O)O)CC(=O)O)CC(=O)O)CC(=O)O)s1	6.96	7.80	–
NS(=O)(=O)c1nc2ccc(OCCOC(=O)CN(CCN(CCN(CC(=O)O)CC(=O)OCCOc3ccc4nc(S(N)(=O)=O)sc4c3)CC(=O)O)CC(=O)O)cc2s1	7.80	8.40	–
Nc1c(S(N)(=O)=O)cc(S(N)(=O)=O)c(Cl)c1Cl	–	6.76	–
NS(=O)(=O)c1ccc(NNC(=O)CN(CCN(CCN(CC(=O)O)CC(=O)NNc2ccc(S(N)(=O)=O)cc2)CC(=O)O)CC(=O)O)cc1	5.01	6.37	–
Cn1nc(S(N)(=O)=O)s/c1=N\C(=O)CN(CCN(CCN(CC(=O)O)CC(=O)/N=c1/sc(S(N)(=O)=O)nn1C)CC(=O)O)CC(=O)O [listing 1 of 2 here]	7.27	8.05	–
Nc1ccc(S(N)(=O)=O)cc1I	–	6.90	–
NS(=O)(=O)c1ccc(NNC(=O)CN(CCN(CCN(CC(=O)O)CC(=O)O)CC(=O)O)CC(=O)O)cc1	4.92	6.20	–
NS(=O)(=O)c1ccccc1NC(=O)CN(CCN(CCN(CC(=O)O)CC(=O)O)CC(=O)O)CC(=O)O	5.07	6.26	–
NS(=O)(=O)c1ccc(NC(=O)CN(CCN(CCN(CC(=O)O)CC(=O)Nc2ccc(S(N)(=O)=O)cc2Br)CC(=O)O)CC(=O)O)c(Br)c1	7.10	7.68	–
NS(=O)(=O)c1ccccc1NC(=O)CN(CCN(CCN(CC(=O)O)CC(=O)Nc1ccccc1S(N)(=O)=O)CC(=O)O)CC(=O)O	5.27	6.48	–
NS(=O)(=O)c1cccc(NC(=O)CN(CCN(CCN(CC(=O)O)CC(=O)Nc2cccc(S(N)(=O)=O)c2)CC(=O)O)CC(=O)O)c1	–	6.37	–
NNc1ccc(S(N)(=O)=O)cc1	–	5.49	–
NS(=O)(=O)c1nc2ccc(NC(=O)CN(CCN(CCN(CC(=O)O)CC(=O)Nc3ccc4nc(S(N)(=O)=O)sc4c3)CC(=O)O)CC(=O)O)cc2s1	7.60	8.22	–
Cn1nc(S(N)(=O)=O)s/c1=N/C(=O)CN(CCN(CCN(CC(=O)O)CC(=O)O)CC(=O)O)CC(=O)O	7.21	7.72	–
Nc1ccc(S(N)(=O)=O)cc1F	–	6.74	–
NCCC(=O)Nc1nnc(S(N)(=O)=O)s1	–	6.90	–
NS(=O)(=O)c1cc(S(N)(=O)=O)c(NC(=O)CN(CCN(CCN(CC(=O)O)CC(=O)Nc2cc(Cl)c(S(N)(=O)=O)cc2S(N)(=O)=O)CC(=O)O)CC(=O)O)cc1Cl	7.20	7.39	–
NS(=O)(=O)c1cc(S(N)(=O)=O)c(NC(=O)CN(CCN(CCN(CC(=O)O)CC(=O)Nc2c(S(N)(=O)=O)cc(S(N)(=O)=O)c(Cl)c2Cl)CC(=O)O)CC(=O)O)c(Cl)c1Cl	7.37	7.60	–

More lines, main results first:

pKi [1]	pKi [2]	SMILES	further results
7.02	7.57	NS(=O)(=O)c1ccc(NC(=O)CN(CCN(CCN(CC(=O)O)CC(=O)O)CC(=O)O)CC(=O)O)c(Br)c1	–
–	7.00	NS(=O)(=O)c1ccc(NC(=O)CN(CCN(CCN(CC(=O)O)CC(=O)Nc2ccc(S(N)(=O)=O)cc2)CC(=O)O)CC(=O)O)cc1 [listing 1 of 2 here]	–
6.70	7.49	NS(=O)(=O)c1ccc(NC(=O)CN(CCN(CCN(CC(=O)O)CC(=O)O)CC(=O)O)CC(=O)O)c(Cl)c1	–
5.39	6.74	NS(=O)(=O)c1ccc(NC(=O)CN(CCN(CCN(CC(=O)O)CC(=O)O)CC(=O)O)CC(=O)O)cc1	Change in IOP [3]: 7.2 mmHg; Change in IOP [4]: 3.1 mmHg; Change in IOP [5]: 4.5 mmHg
6.99	8.10	NS(=O)(=O)c1nnc(NC(=O)CCNC(=O)CN(CCN(CCN(CC(=O)O)CC(=O)NCCC(=O)Nc2nnc(S(N)(=O)=O)s2)CC(=O)O)CC(=O)O)s1	–
7.44	8.05	NS(=O)(=O)c1nc2ccc(NC(=O)CN(CCN(CCN(CC(=O)O)CC(=O)O)CC(=O)O)CC(=O)O)cc2s1	–
–	7.18	Nc1ccc(S(N)(=O)=O)cc1Br	–
–	7.82	NS(=O)(=O)c1nc2ccc(OCCO)cc2s1	–
–	7.60	NS(=O)(=O)c1ccc(CCNC(=O)CN(CCN(CCN(CC(=O)O)CC(=O)NCCc2ccc(S(N)(=O)=O)cc2)CC(=O)O)CC(=O)O)cc1 [listing 1 of 2 here]	–
6.26	7.40	NS(=O)(=O)c1ccc(CNC(=O)CN(CCN(CCN(CC(=O)O)CC(=O)O)CC(=O)O)CC(=O)O)cc1	–
–	7.68	NS(=O)(=O)c1ccc(CNC(=O)CN(CCN(CCN(CC(=O)O)CC(=O)NCc2ccc(S(N)(=O)=O)cc2)CC(=O)O)CC(=O)O)cc1 [listing 1 of 2 here]	–
5.14	6.30	NS(=O)(=O)c1cccc(NC(=O)CN(CCN(CCN(CC(=O)O)CC(=O)O)CC(=O)O)CC(=O)O)c1	–
–	6.81	NS(=O)(=O)c1ccc(NC(=O)CN(CCN(CCN(CC(=O)O)CC(=O)Nc2ccc(S(N)(=O)=O)cc2)CC(=O)O)CC(=O)O)cc1 [listing 2 of 2 here]	Change in IOP [10]: 4.4 mmHg; Change in IOP [11]: 7.5 mmHg; Change in IOP [12]: 9.5 mmHg; Change in IOP [13]: 6 mmHg; Change in IOP [14]: 11 mmHg; Kin: 6.5 h⁻¹; logD [6]: 1.456; Kin [7]: 3.6 h⁻¹
7.24	7.44	NS(=O)(=O)c1cc(S(N)(=O)=O)c(NC(=O)CN(CCN(CCN(CC(=O)O)CC(=O)O)CC(=O)O)CC(=O)O)c(Cl)c1Cl	–
6.54	6.94	NS(=O)(=O)c1ccc(CCOC(=O)CN(CCN(CCN(CC(=O)O)CC(=O)OCCc2ccc(S(N)(=O)=O)cc2)CC(=O)O)CC(=O)O)cc1	–
6.74	7.54	NS(=O)(=O)c1ccc(NC(=O)CN(CCN(CCN(CC(=O)O)CC(=O)O)CC(=O)O)CC(=O)O)c(F)c1	–
–	7.80	NS(=O)(=O)c1ccc(CCNC(=O)CN(CCN(CCN(CC(=O)O)CC(=O)NCCc2ccc(S(N)(=O)=O)cc2)CC(=O)O)CC(=O)O)cc1 [listing 2 of 2 here]	–
7.10	7.54	NS(=O)(=O)c1ccc(NC(=O)CN(CCN(CCN(CC(=O)O)CC(=O)O)CC(=O)O)CC(=O)O)c(I)c1	–
–	7.43	NS(=O)(=O)c1ccc(CNC(=O)CN(CCN(CCN(CC(=O)O)CC(=O)NCc2ccc(S(N)(=O)=O)cc2)CC(=O)O)CC(=O)O)cc1 [listing 2 of 2 here]	–
6.54	7.44	NS(=O)(=O)c1ccc(CCNC(=O)CN(CCN(CCN(CC(=O)O)CC(=O)O)CC(=O)O)CC(=O)O)cc1	–
6.44	6.72	NS(=O)(=O)c1ccc(CCOC(=O)CN(CCN(CCN(CC(=O)O)CC(=O)O)CC(=O)O)CC(=O)O)cc1	–
7.68	8.30	NS(=O)(=O)c1nc2ccc(OC(=O)CN(CCN(CCN(CC(=O)O)CC(=O)Oc3ccc4nc(S(N)(=O)=O)sc4c3)CC(=O)O)CC(=O)O)cc2s1	–
7.49	8.22	NS(=O)(=O)c1nc2ccc(OC(=O)CN(CCN(CCN(CC(=O)O)CC(=O)O)CC(=O)O)CC(=O)O)cc2s1	–
7.37	8.30	Cn1nc(S(N)(=O)=O)s/c1=N\C(=O)CN(CCN(CCN(CC(=O)O)CC(=O)/N=c1/sc(S(N)(=O)=O)nn1C)CC(=O)O)CC(=O)O [listing 2 of 2 here]	–
–	5.52	Nc1ccc(S(N)(=O)=O)cc1 [SULFANILAMIDE]	–
7.52	8.30	NS(=O)(=O)c1nc2ccc(OCCOC(=O)CN(CCN(CCN(CC(=O)O)CC(=O)O)CC(=O)O)CC(=O)O)cc2s1	–
–	7.72	Nc1ccc2nc(S(N)(=O)=O)sc2c1	–
